The text below walks through data of ChEMBL document CHEMBL1201862, “PubChem BioAssay data set” (2004).

Test systems include KM-20L2; RXF 631; SNB-78; DMS-114; HOP-18; XF498; M19-MEL; DMS-273; LXFL 529.
Experiment in all cases: NCI-60 cell line screen, 48 h

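Results reflect a 48-hour exposure of cells in 96-well plates to compound at five concentrations. Abbreviation: GI50, concentration required for 50% inhibition of growth.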 The source made the active and inactive calls. Rule as the data show it: active = GI50 up to about 1.1 µM and inactive = higher.

Regarding `CC(C)c1ccc(/C=C(\NC(=O)c2ccccc2)c2nc3ccccc3[nH]2)cc1`, the GI50 is 58.1 µM (inactive) in the experiment on KM-20L2; 23.6 µM (inactive) in the experiment with RXF 631; 42.9 µM (inactive) in the experiment with SNB-78; 25.3 µM (inactive) in the experiment on DMS-114; 26.4 µM (inactive) in the experiment with HOP-18; 55.3 µM (inactive) in the experiment on XF498. The GI50 with M19-MEL was 33.3 µM (inactive); with DMS-273, 37.9 µM (inactive); in the experiment with LXFL 529 it was 31.8 µM (inactive).
Regarding `Cc1cc2c(C)nn(Cc3ccccc3)c2c(C(=O)O)c1C`, the GI50 in the experiment on KM-20L2, in the experiment on RXF 631, in the experiment on SNB-78, in the experiment with HOP-18, in the experiment with XF498 and in the experiment on M19-MEL was > 100 µM (inactive) throughout. Moreover, the GI50 with DMS-273 and with LXFL 529 was > 100 µM (inactive) each time.
On to `BrCC[N+]12CCCN1CCC2`, for which the GI50 in the experiment with KM-20L2 is 20.6 µM (inactive); in the experiment on RXF 631 it was 21.1 µM (inactive); in the experiment with SNB-78 it was 16.2 µM (inactive); in the experiment on HOP-18, 8.73 µM (inactive); in the experiment with M19-MEL, 16.9 µM (inactive); with DMS-273 it was 18.7 µM (inactive). In addition, the GI50 with LXFL 529 is 2.88 µM (inactive).
With `c1ccc(C2C3=C(Nc4ncnn42)c2ccccc2C3)cc1` (stereo not given), the GI50 in the experiment on KM-20L2 is 7.89 µM (inactive); in the experiment with RXF 631, > 100 µM (inactive); in the experiment with SNB-78 it was > 100 µM (inactive); with DMS-114, 7.1 µM (inactive); in the experiment with HOP-18, 56.1 µM (inactive); in the experiment with XF498, 15.4 µM (inactive). For the same compound, the GI50 in the experiment with M19-MEL is 9.75 µM (inactive); in the experiment on DMS-273, 12.1 µM (inactive).
For `CC(=O)Nc1ccc(/C=c2\sc3nnc(-c4cccnc4)n3c2=O)cc1`, the GI50 in the experiment on KM-20L2 is 17.5 µM (inactive); in the experiment on RXF 631 it was 18.1 µM (inactive); in the experiment with SNB-78, 34.4 µM (inactive); in the experiment on DMS-114, 17.9 µM (inactive); with HOP-18, 19.1 µM (inactive); in the experiment with M19-MEL, 18.1 µM (inactive). Besides, the GI50 in the experiment on DMS-273 is 25.1 µM (inactive); in the experiment with LXFL 529, 15.9 µM (inactive).
In the case of `O=C(O)CCC1CCc2cccc3occ1c23` (stereo not given), the GI50 in the experiment with KM-20L2, with RXF 631, with SNB-78, with DMS-114, in the experiment with M19-MEL and in the experiment with DMS-273 was > 100 µM (inactive) each time. The GI50 in the experiment with LXFL 529 was > 100 µM (inactive).
`C/C(=N\NC(=N)N)C(CN(C)C)C(c1ccccc1)c1c(O)c2ccccc2oc1=O` (stereo not given): the GI50 in the experiment on KM-20L2, with SNB-78, in the experiment on DMS-114, in the experiment on HOP-18, with XF498 and in the experiment on M19-MEL was > 100 µM (inactive) each time. The GI50 in the experiment on DMS-273 and with LXFL 529 was > 100 µM (inactive) each time.
With `COC[C@H](C)/N=C/N1CCc2ccccc2C1(Cc1ccccc1)Cc1ccccc1`, the GI50 with KM-20L2 was 10.8 µM (inactive); with RXF 631, 13.5 µM (inactive); in the experiment on HOP-18 it was 11 µM (inactive); in the experiment on XF498 it was 12.3 µM (inactive); in the experiment on LXFL 529, 11.8 µM (inactive).
Consider `Cc1ccc(NC(=O)C(=O)C2C(=O)NC(=O)NC2=O)cc1C`, for which the GI50 in the experiment with KM-20L2, with SNB-78, with HOP-18, in the experiment with XF498, with M19-MEL and with DMS-273 was > 100 µM (inactive) throughout. The GI50 in the experiment on LXFL 529 was > 100 µM (inactive).
Consider `CCc1ccc(/N=C\c2cc(OC)c(OC)c(OC)c2)cc1`, for which the GI50 is > 100 µM (inactive) in the experiment on KM-20L2; > 100 µM (inactive) in the experiment on SNB-78; 40.4 µM (inactive) with DMS-114; > 100 µM (inactive) in the experiment on HOP-18; > 100 µM (inactive) with XF498; > 100 µM (inactive) in the experiment on M19-MEL. In addition, the GI50 in the experiment on DMS-273 was > 100 µM (inactive); in the experiment with LXFL 529 it was 51.9 µM (inactive).
`CCCC(=O)OC[n+]1ccc2c(C)c3[nH]c4ccccc4c3c(C)c2c1`: the GI50 in the experiment on KM-20L2 is 0.478 µM (active); in the experiment with RXF 631 it was 0.378 µM (active); in the experiment with SNB-78, 1.1 µM (active); with DMS-114 it was 0.641 µM (active); in the experiment on HOP-18 it was 1.09 µM (active); in the experiment with M19-MEL, > 100 µM (inactive). Further, the GI50 with DMS-273 was 0.101 µM (active); in the experiment on LXFL 529 it was 0.57 µM (active).
Turning to `COc1ccc(/C=C/C(=O)c2c(-c3ccccc3)nn(C)c(=O)c2N2CCCCC2)cc1`, the GI50 in the experiment on KM-20L2 was 14.3 µM (inactive); in the experiment on RXF 631, 23.5 µM (inactive); with DMS-114, 14.6 µM (inactive); with HOP-18, 20.1 µM (inactive); with M19-MEL, 25.3 µM (inactive); in the experiment on DMS-273, 15.9 µM (inactive). Also, in the experiment on LXFL 529, the GI50 was 16.6 µM (inactive).
Turning to `CCOC(=O)CC1=N/C(=N/c2cc(Cl)ccc2Cl)SC1`, the GI50 in the experiment with KM-20L2 is > 100 µM (inactive); with SNB-78, > 100 µM (inactive); with DMS-114, 38.5 µM (inactive); in the experiment on HOP-18 it was > 100 µM (inactive); in the experiment on XF498 it was > 100 µM (inactive); in the experiment on M19-MEL it was > 100 µM (inactive). Further, the GI50 with DMS-273 and in the experiment on LXFL 529 was > 100 µM (inactive) throughout.
Consider `O=C1CC23CC(=O)CC2(C1)c1ccccc1C3=O` (stereo not given), for which the GI50 with KM-20L2, with SNB-78, in the experiment with DMS-114, in the experiment on HOP-18, with XF498 and with M19-MEL was > 100 µM (inactive) throughout. In addition, the GI50 with DMS-273 and in the experiment with LXFL 529 was > 100 µM (inactive) throughout.
Take `COc1cc(/C=C/c2ccc(C)cc2)cc(OC)c1OC`: the GI50 is 2.09 µM (inactive) in the experiment on KM-20L2; 2.14 µM (inactive) in the experiment with SNB-78; 5.9 µM (inactive) with DMS-114; 11.4 µM (inactive) in the experiment on HOP-18; 6.49 µM (inactive) in the experiment with XF498; 9.98 µM (inactive) in the experiment with M19-MEL. The values for the GI50 with DMS-273 and in the experiment on LXFL 529 were 3.79 µM (inactive) and 5.58 µM (inactive), respectively.
With `Nc1c(-c2nc3ccccc3s2)[n+]([O-])c2ccccc2[n+]1[O-]`, the GI50 with KM-20L2 is 48.2 µM (inactive); with SNB-78 it was 63 µM (inactive); in the experiment with DMS-114 it was 34.2 µM (inactive); with HOP-18, 23.5 µM (inactive); in the experiment on M19-MEL it was 28 µM (inactive); in the experiment with LXFL 529 it was 28.4 µM (inactive).
Take `CC(=O)OC1[C@H]2c3cc4c(cc3CN3CCC(=C[C@@H]1O)C23)OCO4` (stereo not given in full): the GI50 is 77.8 µM (inactive) with KM-20L2; 54.2 µM (inactive) with SNB-78; > 100 µM (inactive) in the experiment on M19-MEL; > 100 µM (inactive) in the experiment with DMS-273; 48.6 µM (inactive) in the experiment with LXFL 529.
With `COC(=O)c1onc(-c2c(OC)cc(OC)cc2OC)c1C(=O)OC`, the GI50 with KM-20L2, with SNB-78, with DMS-114, with HOP-18, in the experiment with XF498 and with M19-MEL was > 100 µM (inactive) in each case. Also, the GI50 with DMS-273 and with LXFL 529 was > 100 µM (inactive) throughout.
With `O=C(Nc1ccc(Cl)cc1C(=O)O)c1ccc([N+](=O)[O-])cc1`, the GI50 was 21.8 µM (inactive) in the experiment on KM-20L2; 30.1 µM (inactive) with RXF 631; 22.4 µM (inactive) with SNB-78; 9.08 µM (inactive) in the experiment on DMS-114; 24.9 µM (inactive) in the experiment on XF498; 21.4 µM (inactive) in the experiment with M19-MEL. Besides, the GI50 was 27.7 µM (inactive) in the experiment with DMS-273 and 15.5 µM (inactive) in the experiment on LXFL 529.
Take `O=C1c2ccc(O)cc2C(=O)c2ccc(O)cc21`: the GI50 in the experiment on RXF 631 was 75 µM (inactive); with SNB-78, > 100 µM (inactive); with DMS-114 it was 95.9 µM (inactive); in the experiment with XF498, > 100 µM (inactive); in the experiment on M19-MEL, > 100 µM (inactive); in the experiment on DMS-273, 49.2 µM (inactive). Also, the GI50 with LXFL 529 was 87.3 µM (inactive).
Turning to `Cc1cc2c(c(N)c1C)C(=O)c1ccccc1C2=O`, the GI50 in the experiment on KM-20L2 is 25 µM (inactive); in the experiment with SNB-78, > 100 µM (inactive); in the experiment with DMS-114 it was 32.1 µM (inactive); with HOP-18, 1.56 µM (inactive); with M19-MEL, 65.5 µM (inactive); in the experiment on DMS-273 it was 24.4 µM (inactive). Moreover, the GI50 in the experiment on LXFL 529 was 28.8 µM (inactive).
Consider `CCOC(=O)Nn1c(C)cc(C(=O)OC)c1C`, for which the GI50 in the experiment on KM-20L2, in the experiment on SNB-78, in the experiment with DMS-114, in the experiment on XF498, with M19-MEL and in the experiment with DMS-273 was > 100 µM (inactive) in each case. In addition, in the experiment on LXFL 529, the GI50 was > 100 µM (inactive).
For the compound `O=C1C2c3[nH]c4ccccc4c3[C@@H]3CCCCCCCCCCC3C2C(=O)N1c1ccccc1` (stereo not given in full), the GI50 is 12.6 µM (inactive) with RXF 631; 8.53 µM (inactive) in the experiment with SNB-78; 16.9 µM (inactive) in the experiment with DMS-114; 41.5 µM (inactive) in the experiment on HOP-18; 22.2 µM (inactive) in the experiment on M19-MEL; 27.3 µM (inactive) with DMS-273. For the same compound, in the experiment with LXFL 529, the GI50 was 13.5 µM (inactive).
Take `COc1ccc(C(=O)N2c3ccccc3N(C)n3cccc3C2CC(=O)O)cc1` (stereo not given): the GI50 with KM-20L2, in the experiment with SNB-78, in the experiment on DMS-114, in the experiment on M19-MEL, with DMS-273 and in the experiment with LXFL 529 was > 100 µM (inactive) each time.
Regarding `C[N+]1(C)C/C(=C\c2ccncc2)C(=O)/C(=C/c2ccncc2)C1`, the GI50 in the experiment on KM-20L2, with SNB-78, in the experiment with DMS-114, in the experiment on HOP-18, with M19-MEL and in the experiment with DMS-273 was > 100 µM (inactive) in each case. For the same compound, the GI50 with LXFL 529 was > 100 µM (inactive).
`O=C(NCCCN1CCN(CCCNC(=O)c2cccc3ccccc23)CC1)c1cccc2ccccc12`: the GI50 in the experiment on KM-20L2 is 34 µM (inactive); in the experiment with RXF 631 it was 75.7 µM (inactive); in the experiment with SNB-78, 41.3 µM (inactive); in the experiment with DMS-114 it was 59.8 µM (inactive); with HOP-18, > 100 µM (inactive); in the experiment on XF498, 21.9 µM (inactive). For the same compound, the GI50 is > 100 µM (inactive) in the experiment with M19-MEL and 89.7 µM (inactive) in the experiment with LXFL 529.
